Measurements from US20070179120A1, “HYDROXYL COMPOUNDS AND COMPOSITIONS FOR CHOLESTEROL MANAGEMENT AND RELATED USES” (ESPERION THERAPEUTICS, INC., priority 2003, published 2007).
Like-named read-outs stand apart in the source and are kept apart here.

Columns and labels:
primary rat hepatocytes = experiment: Inhibition of lipid synthesis ([1-14C]-acetate incorporation) in primary rat hepatocytes; format: cell-based; details: Hepatocyte, 4 hours incubation, 0-300 μM
Experimental: Compounds were tested for inhibition of lipid synthesis in primary cultures of rat hepatocytes. Male Sprague-Dawley rats were anesthetized with intraperitoneal injection of sodium pentobarbital (80 mg/kg). Rat hepatocytes were isolated essentially as described by the method of Seglen (Seglen, P. O. Hepatocyte suspensions and cultures as tools in experimental carcinogenesis. J. Toxicol. Environ. Health 1979, 5, 551-560). Hepatocytes were suspended in Dulbecco's Modified Eagles Medium containing 25 mM D-glucose, 14 mM HEPES, 5 mM L-glutamine, 5 mM leucine, 5 mM alanine, 10 mM lactate, 1 mM pyruvate, 0.2% bovine serum albumin, 17.4 mM non-essential amino acids, 20% fetal bovine serum, 100 nM insulin and 20 μg/mL gentamycin) and plated at a density of 1.5×10^5 cells/cm^2 on collagen-coated 96-well plates. Four hours after plating, media was replaced with the same media without serum. Cells were grown overnight to allow formation of monolayer cultures. Lipid synthesis incubation conditions were initially assessed to ensure the linearity of [1-^14C]-acetate incorporation into hepatocyte lipids for up to 4 hours. Hepatocyte lipid synthesis inhibitory activity was assessed during incubations in the presence of 0.25 μCi [1-^14C]-acetate/well (final radiospecific activity in assay is 1 Ci/mol) and 0, 1, 3, 10, 30, 100 or 300 μM of compounds for 4 hours. At the end of the 4-hour incubation period, medium was discarded and cells were washed twice with ice-cold phosphate buffered saline and stored frozen prior to analysis. To determine total lipid synthesis, 170 μl of MicroScint-E® and 50 μl water was added to each well to extract and partition the lipid soluble products to the upper organic phase containing the scintillant. Lipid radioactivity was assessed by scintillation spectroscopy in a Packard TopCount NXT.

obese female Zucker rats = experiment: Oral daily treatment of obese female Zucker rats for fourteen days: serum lipids, glycemic control indicators, body weight; format: in vivo, rat; details: for change in vivo at 100 mg/kg/day / change in vivo at 100 mg/kg: Rattus norvegicus, 336 h; for change in vivo at 100 mg/kg/day: 100 mg/kg/day oral gavage, read-out: % wt. gain; for change in vivo at 100 mg/kg / HDL-C/non-HDL-C: 100 mg/kg/day oral; for HDL-C/non-HDL-C: serum ratio
Experimental: In a number of different experiments, illustrative compounds of the invention are administered daily at a dose of up to 100 mg/kg to chow fed obese female Zucker rats for fourteen days in the morning by oral gavage in 1.5% carboxymethylcellulose/0.2% Tween 20 or 20% ethanol/80% polyethylene glycol (dosing vehicles). Animals are weighed daily. Animals are allowed free access to rodent chow and water throughout the study except on days of blood sampling where food is restricted for six hours prior to blood sampling. Blood glucose is determined after the 6 hour fast in the afternoon without anesthesia from a tail vein. Serum is also prepared from pretreatment blood samples subsequently obtained from the orbital venous plexus (with O2/CO2 anesthesia) and following the fourteenth dose at sacrifice from the heart following O2/CO2 anesthesia. Serums are assayed for lipoprotein cholesterol profiles, triglycerides, total cholesterol, Non-HDL cholesterol, HDL cholesterol, the ratio of HDL cholesterol to that of Non-HDL cholesterol, insulin, non-esterified fatty acids, and beta-hydroxy butyric acid. The percent body weight gain and the ratio of liver to body weight is also determined. These are shown as absolute values or as a percent change of the pretreatment values in Table 1 for compounds A-K and in Table 2 for compounds L-M. [drawing 111]

female Syrian hamsters = experiment: Chow-fed female Syrian hamsters, 3 weeks of oral dosing: lipoprotein cholesterol, triglycerides, glucose, insulin, body weight, bile acids; format: in vivo; details: chow-fed hamster, 100 mg/kg/day oral, 3 weeks of dosing
Experimental: Ten week old female Syrian hamsters were acclimated for 21 days to a shortened light and dark cycle (10 hours of light/14 hours of darkness). During the acclimation and drug intervention period animals were allowed free access to rodent chow (Purina 5001) and water except for a 6 hour period prior to blood sampling. Following the 21 day acclimation period ESP 55015 was administered daily for three weeks, between 8 10 AM, at a dose of 100 mg/Kg by oral gavage in a dosing vehicle consisting of 20% Ethanol/80% Polyethylene glycol 200 [v/v]. Prior to and in the afternoon following the 13th and 21st doses blood samples were collected, between 2 PM and 4 PM, by administering O2/CO2 anesthesia and bleeding from the orbital venous plexus. All blood samples were processed for separation of serum. Serum samples were subsequently assayed for total cholesterol, total cholesterol lipoprotein profiles (HDL cholesterol, LDL cholesterol and VLDL cholesterol), the ratio of HDL cholesterol, LDL cholesterol and VLDL cholesterol), the ratio of HDL cholesterol to non HDL cholesterol (LDL C, VLDL C) and triglycerides (Table 4). Percent body weight gain and ratio of liver weight to body weight were also determined.

[1] = blood glucose after 6 hour fast, read-out: Glucose (Percent of Pre-treatment)
[2] = serum beta-hydroxy butyric acid, read-out: BHA (Percent of Pre-treatment)
[3] = serum non-esterified fatty acids, read-out: NEFA (Percent of Pre-treatment)
[4] = serum total cholesterol, read-out: TC (Percent of Pre-treatment)
[5] = serum triglycerides, read-out: TG (Percent of Pre-treatment)
[6] = serum, read-out: HDL-C (Percent of Pre-treatment)
[7] = serum, read-out: Insulin (Percent of Pre-treatment)
[8] = serum, read-out: Non-HDL-C (Percent of Pre-treatment)

SMILES: CC(C)(CO)CCCCCC(O)CCCCCC(C)(C)CO [Compound B]
- IC50 (primary rat hepatocytes): 5.1 µM
- change in vivo at 100 mg/kg/day (obese female Zucker rats): 1%
- change in vivo at 100 mg/kg (obese female Zucker rats; [1]): -3%
- change in vivo at 100 mg/kg (obese female Zucker rats; [2]): 199%
- change in vivo at 100 mg/kg (obese female Zucker rats; [3]): -28%
- change in vivo at 100 mg/kg (obese female Zucker rats; [4]): 105%
- change in vivo at 100 mg/kg (obese female Zucker rats; [5]): -87%
- change in vivo at 100 mg/kg (obese female Zucker rats; [6]): 237%
- change in vivo at 100 mg/kg (obese female Zucker rats; [7]): -52%
- change in vivo at 100 mg/kg (obese female Zucker rats; [8]): -81%
- HDL-C/non-HDL-C (obese female Zucker rats): 35
- Bile Acids (female Syrian hamsters): 67,108 ± 17,529 ng/ml
- Body wt. (female Syrian hamsters): 146 ± 2 gm
- Glucose (female Syrian hamsters): 122 ± 3
- Insulin (female Syrian hamsters): 2.4 ± 0.7
- HDL-C (female Syrian hamsters; serum): 63 ± 4 mg/dL
- LDL-C (female Syrian hamsters; serum): 44 ± 4 mg/dL
- TG (female Syrian hamsters; serum): 128 ± 37 mg/dL
- VLDL-C (female Syrian hamsters; serum): 4 ± 2 mg/dL

SMILES: CC(C)(CO)CCCCC(O)CCCCC(C)(C)C(=O)O (centres unmarked) [Compound I]
- IC50 (primary rat hepatocytes): 2.3 µM

SMILES: CC(C)(CO)CCCCCC(O)CCCCC(C)(C)CO (centres unmarked) [D]
- IC50 (primary rat hepatocytes): 1.6 µM

SMILES: CC(C)(CCCCC(O)CCCC(C)(C)C(=O)O)C(=O)O (centres unmarked) [E]
- IC50 (primary rat hepatocytes): 8.3 µM

SMILES: CC(C)(CO)CCCCC(O)CCCCC(C)(C)CO [F]
- IC50 (primary rat hepatocytes): 6.4 µM
- change in vivo at 100 mg/kg/day (obese female Zucker rats): 3%
- change in vivo at 100 mg/kg (obese female Zucker rats; [1]): 10%
- change in vivo at 100 mg/kg (obese female Zucker rats; [3]): -43%
- change in vivo at 100 mg/kg (obese female Zucker rats; [4]): 53%
- change in vivo at 100 mg/kg (obese female Zucker rats; [5]): -46%
- change in vivo at 100 mg/kg (obese female Zucker rats; [6]): 222%
- change in vivo at 100 mg/kg (obese female Zucker rats; [7]): -4%
- change in vivo at 100 mg/kg (obese female Zucker rats; [8]): -15%
- HDL-C/non-HDL-C (obese female Zucker rats): 2

SMILES: CC(C)(CO)CCCCCCC(O)CCCCCCC(C)(C)CO [G]
- IC50 (primary rat hepatocytes): 7.8 µM
- change in vivo at 100 mg/kg/day (obese female Zucker rats): 9%
- change in vivo at 100 mg/kg (obese female Zucker rats; [1]): 14%
- change in vivo at 100 mg/kg (obese female Zucker rats; [2]): 163%
- change in vivo at 100 mg/kg (obese female Zucker rats; [3]): -62%
- change in vivo at 100 mg/kg (obese female Zucker rats; [4]): 21%
- change in vivo at 100 mg/kg (obese female Zucker rats; [5]): -80%
- change in vivo at 100 mg/kg (obese female Zucker rats; [6]): 68%
- change in vivo at 100 mg/kg (obese female Zucker rats; [7]): -38%
- change in vivo at 100 mg/kg (obese female Zucker rats; [8]): -68%
- HDL-C/non-HDL-C (obese female Zucker rats): 12

SMILES: CC(C)(CO)CCCCCCCC(O)CCCCCCCC(C)(C)CO [H]
- IC50 (primary rat hepatocytes): 2.6 µM
- change in vivo at 100 mg/kg/day (obese female Zucker rats): 9%
- change in vivo at 100 mg/kg (obese female Zucker rats; [1]): 19%
- change in vivo at 100 mg/kg (obese female Zucker rats; [2]): 97%
- change in vivo at 100 mg/kg (obese female Zucker rats; [3]): -30%
- change in vivo at 100 mg/kg (obese female Zucker rats; [4]): 61%
- change in vivo at 100 mg/kg (obese female Zucker rats; [5]): -36%
- change in vivo at 100 mg/kg (obese female Zucker rats; [6]): 115%
- change in vivo at 100 mg/kg (obese female Zucker rats; [7]): -30%
- change in vivo at 100 mg/kg (obese female Zucker rats; [8]): -5%
- HDL-C/non-HDL-C (obese female Zucker rats): 3

SMILES: CC(C)(CO)CCCCC(CO)CCCCC(C)(C)CO [J]
- IC50 (primary rat hepatocytes): 17 µM
- change in vivo at 100 mg/kg/day (obese female Zucker rats): 12%
- change in vivo at 100 mg/kg (obese female Zucker rats; [1]): 21%
- change in vivo at 100 mg/kg (obese female Zucker rats; [2]): 183%
- change in vivo at 100 mg/kg (obese female Zucker rats; [3]): -32%
- change in vivo at 100 mg/kg (obese female Zucker rats; [4]): -6%
- change in vivo at 100 mg/kg (obese female Zucker rats; [5]): -23%
- change in vivo at 100 mg/kg (obese female Zucker rats; [6]): -2%
- change in vivo at 100 mg/kg (obese female Zucker rats; [7]): -11%
- change in vivo at 100 mg/kg (obese female Zucker rats; [8]): -12%
- HDL-C/non-HDL-C (obese female Zucker rats): 2

SMILES: CC(C)(CCCCC(CO)CCCCC(C)(C)C(=O)O)C(=O)O [K]
- IC50 (primary rat hepatocytes): 14 µM
- change in vivo at 100 mg/kg/day (obese female Zucker rats): 10%
- change in vivo at 100 mg/kg (obese female Zucker rats; [1]): 3%
- change in vivo at 100 mg/kg (obese female Zucker rats; [2]): 253%
- change in vivo at 100 mg/kg (obese female Zucker rats; [3]): -32%
- change in vivo at 100 mg/kg (obese female Zucker rats; [4]): 35%
- change in vivo at 100 mg/kg (obese female Zucker rats; [5]): -45%
- change in vivo at 100 mg/kg (obese female Zucker rats; [6]): 62%
- change in vivo at 100 mg/kg (obese female Zucker rats; [7]): 41%
- change in vivo at 100 mg/kg (obese female Zucker rats; [8]): -38%
- HDL-C/non-HDL-C (obese female Zucker rats): 9

SMILES: CCCCC(O)CCCCCC(C)(C)C(=O)O (centres unmarked) [L]
- change in vivo at 100 mg/kg/day (obese female Zucker rats): 12%
- change in vivo at 100 mg/kg (obese female Zucker rats; [1]): 13%
- change in vivo at 100 mg/kg (obese female Zucker rats; [2]): 88%
- change in vivo at 100 mg/kg (obese female Zucker rats; [3]): -27%
- change in vivo at 100 mg/kg (obese female Zucker rats; [4]): -3%
- change in vivo at 100 mg/kg (obese female Zucker rats; [5]): -37%
- change in vivo at 100 mg/kg (obese female Zucker rats; [6]): -2%
- change in vivo at 100 mg/kg (obese female Zucker rats; [7]): -37%
- change in vivo at 100 mg/kg (obese female Zucker rats; [8]): -11%
- HDL-C/non-HDL-C (obese female Zucker rats): 4
